# Experimental data from patent US20020169111A1, “Reversal of multidrug resistance in human colon carcinoma cells” (American Cyanamid Comany, priority 1998, published 2002).
# Where “and” joins values, the source holds several entries; their conditions need not be identical. Identical values can stand only once. Like-named read-outs stand apart in the source and are kept apart here.
# Key:
# MCF-7 cells = assay: Dose modifying factor of FTC (SRB, EC50 ratio); type: cell-based, human; conditions: for Dose modifying factor (5 μM FTC): MCF-7 (untransfected, Table 11)
# Protocol: (§1) Cell survival was estimated after 3 days using the SRB assay. Cell survival was determined by the SRB assay and EC50 values were determined from toxicity curves. The dose modifying factor (DMF) is the ratio of EC50 values obtained in the absence and presence of reversal agent. Maximum DMF values (shown in parentheses) is the ratio of EC50 values of resistant and sensitive cells in the absence of the reversal agent. This value is obtained when resistance is reversed completely, and is the equivalent of the relative resistance.
# (§2) In order to determine the utility of FTC as a reversal agent in other multidrug resistant cell lines, FTC was tested in two breast cancer cell lines which show a multidrug resistant phenotype with no overexpression of P-gp or MRP.
# (§3) Cell survival was estimated after 3 days using the SRB assay, and EC50 values were determined from cytotoxicity curves.
# S1-M1-3.2 cells [1] = assay: Dose modifying factor of FTC (SRB, EC50 ratio); type: cell-based, human; conditions: S1-M1 cells
# Protocol: as §1
# S1 cells = assay: Dose modifying factor of FTC (SRB, EC50 ratio); type: cell-based, human
# Protocol: as §1
# S1-M1-3.2 cells [2] = conditions: for Per Cent Survival Alone: 3 days; for Difference Score: survival alone minus survival with 3.2 μM mitoxantrone
# Summary of the method: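 Cells grown in medium with 5% FBS received reversal agents at 0.1-80 μM (triplicate per dose), with or without the antitumor agent, plus reversal agent-only wells; survival by SRB assay. Difference Score = % survival with drug alone minus % survival with drug plus antitumor agent.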
# MCF-7/BCRP cells = assay: Dose modifying factor of FTC in BCRP-transfected cells; type: cell-based, human; conditions: MCF-7/BCRP
# Protocol: as §3
# 8226/MR4 cells = assay: Reversal of mitoxantrone resistance in myeloid cells; type: cell-based, human; conditions: selected for resistance to mitoxantrone
# A549 = assay: Sensitization of unselected cells to mitoxantrone; type: cell-based; conditions: A549 non small cell lung carcinoma, not selected
# HL-60/AR cells = type: cell-based; conditions: for Dose modifying factor: HL-60/AR
# Protocol: as §1
# S1-B1-20 cells = assay: Reversal of resistance in P-gp expressing cells, alone or with 21 μM bisantrene; type: cell-based, human; parameters: Difference Score: unit not given here; conditions: for Per Cent Survival with 21 μM bisantrene / Per Cent Survival Alone / Difference Score: S1-B1-20 cells; for Difference Score: survival alone minus survival with 21 μM bisantrene
# Protocol: To determine the specificity of FTC for non P-gp multidrug resistance, FTC was tested on S1-B1-20 cells which were selected for resistance to bisantrene and which express high levels of P-gp (Table 9)(Zhang, et al, Oncol. Res. 6291-301 (1994)). […] The 21 μM concentration of bisantrene is not inhibitory to the growth of the cells. Values shown are mean ± standard deviation from triplicate test wells.
# HL-60 cells = assay: Dose modifying factor of FTC (SRB, EC50 ratio); type: cell-based; conditions: for Dose modifying factor: HL-60
# Protocol: as §1
# MCF 7/AdVp cells = type: cell-based, human; conditions: MCF 7/AdVp; 5 μM FTC with Paclitaxel
# Protocol: as §1, §2
compound,measurement,setting,value
COc1ccc2c3c([nH]c2c1)[C@H](C=C(C)C)N1C(=O)[C@@H]2CCCN2C(=O)[C@@H]1C3 [Fumitremorgin C],Dose modifying factor,"MCF-7 cells; MCF 7 (row above MCF 7/AdVp), 5 μM FTC with Doxorubicin",2.0
same,Dose modifying factor,"MCF-7 cells; MCF 7 (row above MCF 7/AdVp), 5 μM FTC with Mitoxantrone",7.5
same,Dose modifying factor,"MCF-7 cells; MCF 7 (row above MCF 7/AdVp), 5 μM FTC with Paclitaxel",1.0
same,Dose modifying factor,"MCF-7 cells; MCF 7 (row above MCF 7/mtxR), 5 μM FTC with Doxorubicin",1.0
same,Dose modifying factor,"MCF-7 cells; MCF 7 (row above MCF 7/mtxR), 5 μM FTC with Mitoxantrone",1.7
same,Dose modifying factor,"MCF-7 cells; MCF 7 (row above MCF 7/mtxR), 5 μM FTC with Paclitaxel",0.8
same,Dose modifying factor (5 μM FTC),MCF-7 cells; with Doxorubicin,1.0
same,Dose modifying factor (5 μM FTC),MCF-7 cells; with Mitoxantrone,2.5
same,Dose modifying factor (5 μM FTC),MCF-7 cells; with Paclitaxel,0.7
same,Dose modifying factor (5 μM FTC),MCF-7 cells; with Topotecan,5.6
same,"Reversal by FTC (fold), range over drugs",MCF-7 cells; parental unselected MCF-7 cells,0.8-1.7 fold
same,"reversal by FTC (fold), mitoxantrone and topotecan","MCF-7 cells; untransfected MCF-7 cells, 5 μM FTC",2.5-5.6 fold
same,Dose modifying factor,"S1-M1-3.2 cells [1]; 5 μM FTC with Doxorubicin, listed as FTC",26 and 25.9
same,Dose modifying factor,S1-M1-3.2 cells [1]; 5 μM FTC with Mitoxantrone,93
same,Dose modifying factor,S1-M1-3.2 cells [1]; 5 μM FTC with Paclitaxel,1.1
same,Dose modifying factor,S1-M1-3.2 cells [1]; 5 μM FTC with Topotecan,24
same,Dose modifying factor,S1 cells; 5 μM FTC with Doxorubicin,1
same,Dose modifying factor,S1 cells; 5 μM FTC with Mitoxantrone,1
same,Dose modifying factor,S1 cells; 5 μM FTC with Paclitaxel,1.4
same,Dose modifying factor,S1 cells; 5 μM FTC with Topotecan,0.9
same,concentration giving 40% cell death (compound alone),S1-M1-3.2 cells [2]; S1-M1-3.2 cells,greater than 80 μM
same,toxicity alone (in words),"S1-M1-3.2 cells [2]; S1-M1-3.2 cells, dose range tested 0.1-80 μM",No toxicity
same,Per Cent Survival with 3.2 μM mitoxantrone,"S1-M1-3.2 cells [2]; S1-M1-3.2 cells, drug 0.1 μM",95 ± 4 Per Cent
same,Per Cent Survival Alone,"S1-M1-3.2 cells [2]; S1-M1-3.2 cells, drug 0.1 μM alone",105 ± 4 Per Cent
same,Difference Score,"S1-M1-3.2 cells [2]; S1-M1-3.2 cells, drug 0.1 μM",10
same,Per Cent Survival with 3.2 μM mitoxantrone,"S1-M1-3.2 cells [2]; S1-M1-3.2 cells, drug 0.5 μM",39 ± 10 Per Cent
same,Per Cent Survival Alone,"S1-M1-3.2 cells [2]; S1-M1-3.2 cells, drug 0.5 μM alone",105 ± 2 Per Cent
same,Difference Score,"S1-M1-3.2 cells [2]; S1-M1-3.2 cells, drug 0.5 μM",66
same,Per Cent Survival with 3.2 μM mitoxantrone,"S1-M1-3.2 cells [2]; S1-M1-3.2 cells, drug 1 μM",30 ± 1 Per Cent
same,Per Cent Survival Alone,"S1-M1-3.2 cells [2]; S1-M1-3.2 cells, drug 1 μM alone",103 ± 1 Per Cent
same,Difference Score,"S1-M1-3.2 cells [2]; S1-M1-3.2 cells, drug 1 μM",73
same,Per Cent Survival with 3.2 μM mitoxantrone,"S1-M1-3.2 cells [2]; S1-M1-3.2 cells, drug 5 μM",24 ± 4 Per Cent
same,Per Cent Survival Alone,"S1-M1-3.2 cells [2]; S1-M1-3.2 cells, drug 5 μM alone",99 ± 5 Per Cent
same,Difference Score,"S1-M1-3.2 cells [2]; S1-M1-3.2 cells, drug 5 μM",75
same,Per Cent Survival with 3.2 μM mitoxantrone,"S1-M1-3.2 cells [2]; S1-M1-3.2 cells, drug 10 μM",22 ± 6 Per Cent
same,Per Cent Survival Alone,"S1-M1-3.2 cells [2]; S1-M1-3.2 cells, drug 10 μM alone",99 ± 1 Per Cent
same,Difference Score,"S1-M1-3.2 cells [2]; S1-M1-3.2 cells, drug 10 μM",77
same,Per Cent Survival with 3.2 μM mitoxantrone,"S1-M1-3.2 cells [2]; S1-M1-3.2 cells, drug 20 μM",17 ± 10 Per Cent
same,Per Cent Survival Alone,"S1-M1-3.2 cells [2]; S1-M1-3.2 cells, drug 20 μM alone",104 ± 4 Per Cent
same,Difference Score,"S1-M1-3.2 cells [2]; S1-M1-3.2 cells, drug 20 μM",87
same,Per Cent Survival with 3.2 μM mitoxantrone,"S1-M1-3.2 cells [2]; S1-M1-3.2 cells, drug 40 μM",14 ± 11 Per Cent
same,Per Cent Survival Alone,"S1-M1-3.2 cells [2]; S1-M1-3.2 cells, drug 40 μM alone",108 ± 5 Per Cent
same,Difference Score,"S1-M1-3.2 cells [2]; S1-M1-3.2 cells, drug 40 μM",94
same,Per Cent Survival with 3.2 μM mitoxantrone,"S1-M1-3.2 cells [2]; S1-M1-3.2 cells, drug 80 μM",13 ± 11 Per Cent
same,Per Cent Survival Alone,"S1-M1-3.2 cells [2]; S1-M1-3.2 cells, drug 80 μM alone",94 ± 4 Per Cent
same,Difference Score,"S1-M1-3.2 cells [2]; S1-M1-3.2 cells, drug 80 μM",81
same,Toxicity (>20%),"S1-M1-3.2 cells [2]; compound alone, concentration that causes greater than 20% cell death of S1-M1-3.2 cells",>80.0 µM
same,Toxicity (>20%) (μM),"S1-M1-3.2 cells [2]; compound alone, concentration that causes greater than 20% cell death of S1-M1-3.2 cells, listed as FTC",greater than 80.0 μM
same,IC50,"S1-M1-3.2 cells [2]; read-out: IC50 (μM), resensitizing S1-M1-3.2 cells to mitoxantrone, with 3.2 μM mitoxantrone, 50% cancer cell death, listed as FTC",0.35 µM and 0.3 µM
same,Dose modifying factor (5 μM FTC),MCF-7/BCRP cells; with Doxorubicin,6.6
same,Dose modifying factor (5 μM FTC),MCF-7/BCRP cells; with Mitoxantrone,29.4
same,Dose modifying factor (5 μM FTC),MCF-7/BCRP cells; with Paclitaxel,1.1
same,Dose modifying factor (5 μM FTC),MCF-7/BCRP cells; with Topotecan,6.5
same,reversal of resistance in 8226/MR4 cells (in words),8226/MR4 cells,reversed low level resistance
same,sensitization to mitoxantrone (in words),A549,can be sensitized to mitoxantrone
same,"reversal activity of FTC (fold), range over drugs",HL-60/AR cells; HL60/AR,2.6-3.3 fold
same,Dose modifying factor,HL-60/AR cells; 5 μM FTC with Doxorubicin,2.8 (92.3)
same,Dose modifying factor,HL-60/AR cells; 5 μM FTC with Mitoxantrone,3.3 (53)
same,Dose modifying factor,HL-60/AR cells; 5 μM FTC with Paclitaxel,2.6 (5.1)
same,reversal of resistance in MRP-positive HL60/AR cells (in words),HL-60/AR cells; doxorubicin-selected,did not reverse resistance
same,Per Cent Survival with 21 μM bisantrene,S1-B1-20 cells; drug 0.1 μM,101 ± 1 Per Cent
same,Per Cent Survival Alone,S1-B1-20 cells; drug 0.1 μM alone,99 ± 1 Per Cent
same,Difference Score,S1-B1-20 cells; drug 0.1 μM,−4
same,Per Cent Survival with 21 μM bisantrene,S1-B1-20 cells; drug 0.5 μM,103 ± 1 Per Cent
same,Per Cent Survival Alone,S1-B1-20 cells; drug 0.5 μM alone,99 ± 1 Per Cent
same,Difference Score,S1-B1-20 cells; drug 0.5 μM,−4
same,Per Cent Survival with 21 μM bisantrene,S1-B1-20 cells; drug 1 μM,100 ± 0 Per Cent
same,Per Cent Survival Alone,S1-B1-20 cells; drug 1 μM alone,98 ± 3 Per Cent
same,Difference Score,S1-B1-20 cells; drug 1 μM,−2
same,Per Cent Survival with 21 μM bisantrene,S1-B1-20 cells; drug 5 μM,103 ± 2 Per Cent
same,Per Cent Survival Alone,S1-B1-20 cells; drug 5 μM alone,101 ± 3 Per Cent
same,Difference Score,S1-B1-20 cells; drug 5 μM,−2
same,Per Cent Survival with 21 μM bisantrene,S1-B1-20 cells; drug 10 μM,93 ± 1 Per Cent
same,Per Cent Survival Alone,S1-B1-20 cells; drug 10 μM alone,88 ± 0 Per Cent
same,Difference Score,S1-B1-20 cells; drug 10 μM,−4
same,Per Cent Survival with 21 μM bisantrene,S1-B1-20 cells; drug 20 μM,89 ± 1 Per Cent
same,Per Cent Survival Alone,S1-B1-20 cells; drug 20 μM alone,85 ± 0 Per Cent
same,Difference Score,S1-B1-20 cells; drug 20 μM,−4
same,Per Cent Survival with 21 μM bisantrene,S1-B1-20 cells; drug 40 μM,77 ± 2 Per Cent
same,Per Cent Survival Alone,S1-B1-20 cells; drug 40 μM alone,83 ± 1 Per Cent
same,Difference Score,S1-B1-20 cells; drug 40 μM,13
same,Per Cent Survival with 21 μM bisantrene,S1-B1-20 cells; drug 80 μM,53 ± 5 Per Cent
same,Per Cent Survival Alone,S1-B1-20 cells; drug 80 μM alone,35 ± 1 Per Cent
same,Difference Score,S1-B1-20 cells; drug 80 μM,−18
same,reversal of resistance in P-gp positive S1-B1-20 cells (in words),S1-B1-20 cells; bisantrene-selected,did not reverse resistance
same,Dose modifying factor,HL-60 cells; 5 μM FTC with Doxorubicin,2.1
same,Dose modifying factor,HL-60 cells; 5 μM FTC with Mitoxantrone,1.3
same,Dose modifying factor,HL-60 cells; 5 μM FTC with Paclitaxel,1.0
same,"reversal activity of FTC (fold), range over drugs",HL-60 cells; parental line HL-60,1.0-2.1 fold
same,Dose modifying factor,MCF 7/AdVp cells,0.7 (10.7)
